# PMC12592502, “Unraveling the mechanisms behind the enhanced efficacy of β-lactam-based sideromycins” (Communications Biology, 2025)
# “And” between values parts separate entries of the source, which are not always exact repeats. Equal values may be shown once. Read-outs that look alike come from different tables or passages of the source.
# Key:
# K. pneumoniae ATCC 13883 = test: MIC, broth microdilution (CLSI); type: cell-based, Klebsiella pneumoniae; details: for MIC with β-lactamase inhibitor (βI): + 4 μg/mL clavulanic acid; for MIC ratio 0/1: 0 and 1 µg/mL supplemental iron (Table S2); for MIC ratio 1/0: 1 versus 0 µg/mL supplemental iron (peer review file table)
# Experimental: All bacterial strains (see description and sources Table S1) were stored at −80 °C, and grown on tryptone soya agar (TSA) at 35 °C. The iron-deprived (ID)-MHBCA (cation-adjusted Muller-Hinton Broth, Becton Dickinson, Mississauga, ON, Canada) medium was prepared as reported by refs. [21],[50]. Briefly, MHBCA was treated with 10% Chelex® 50-100 mesh (Sigma) and stirred for 6 h at room temperature. The resin was removed by filtration. Divalent Ca^2+ (CaCl2), Mg^2+ (MgCl2), and Zn^2+(ZnSO4), were then added in the iron-depleted medium at 22, 12, and 1 μg/ml respectively. Finally, the pH was adjusted to 7.3, and the medium was sterilized with a 0.2-μm filter. Regular MHBCA (i.e., not treated with Chelex®) was used to compare the inhibitory activity of conjugates in iron-sufficient conditions. The resin used for Chelex treatment was always fresh and had never been regenerated, ensuring consistent iron removal.
# (§1) Minimal inhibitory concentrations (MICs) were performed using a broth microdilution technique according to the Clinical and Laboratory Standards Institute (CLSI) guidelines. MICs were determined in MHBCA and in ID-MHBCA. To check the impact of β-lactamases, MICs in the presence of a β-lactamase inhibitor were also determined. The inhibitor was homogenized at 2X the final concentration and added to the bacterial inoculum just before distributing cells into the wells containing the drug dilutions. The final concentration of each inhibitor was 4 μg/mL for clavulanic acid (tested against K. pneumoniae) and 200 μg/mL for 3-aminophenylboronic acid (tested against P. aeruginosa and A. baumannii).
# [1] = test system: P. aeruginosa 2302 MexAB, MexCD, MexEF upregulated; test: MIC, efflux pump overexpressing strain; type: cell-based, Pseudomonas aeruginosa
# Experimental: as §1
# PBP2 = target: T1, PBP2 (Pseudomonas aeruginosa, UniProt Q9X6V3); test: Membrane PBP binding assay, competition with Bocillin FL
# T1 construct: using bacterial membranes as the source of PBPs; endogenous in cells; host or cells: P. aeruginosa ATCC 27853 membrane preparation
# T1 sequence (Q9X6V3 1-646): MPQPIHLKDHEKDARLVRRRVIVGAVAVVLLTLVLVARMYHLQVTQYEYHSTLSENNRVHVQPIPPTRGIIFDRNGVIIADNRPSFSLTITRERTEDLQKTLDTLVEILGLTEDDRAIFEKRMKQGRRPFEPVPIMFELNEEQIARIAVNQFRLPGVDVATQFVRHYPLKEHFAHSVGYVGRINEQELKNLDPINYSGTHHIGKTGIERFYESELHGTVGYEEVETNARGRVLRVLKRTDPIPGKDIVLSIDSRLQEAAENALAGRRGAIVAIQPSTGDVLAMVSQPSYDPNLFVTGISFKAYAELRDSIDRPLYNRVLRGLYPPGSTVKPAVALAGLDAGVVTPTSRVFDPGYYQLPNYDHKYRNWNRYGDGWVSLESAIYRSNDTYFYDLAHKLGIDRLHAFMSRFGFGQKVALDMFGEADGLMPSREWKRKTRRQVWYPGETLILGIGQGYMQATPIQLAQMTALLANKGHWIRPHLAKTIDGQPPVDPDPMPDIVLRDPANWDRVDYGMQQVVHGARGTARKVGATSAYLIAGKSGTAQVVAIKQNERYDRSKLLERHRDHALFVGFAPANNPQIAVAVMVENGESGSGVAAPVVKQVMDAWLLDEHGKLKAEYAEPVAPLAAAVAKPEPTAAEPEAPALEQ
# Experimental: (§2) Membrane extracts containing PBPs were obtained as described above. Briefly, all species were grown in 1 L of TSB until the OD600 reached 0.9. The washed pellet was incubated with lysozyme (400 μg/mL), DNase (10 μg/mL) RNase(10 μg/mL) and anti-protease cocktail (200 mg/20 mL). Lysis was done with a French press (20,000 psi) and membrane protein were pelleted by ultracentrifugation steps (100,000 × g). The pellet was suspended in a minimal volume (300–500 μL) of KP 0.05 M buffer at pH 7. The protein concentration in the membrane preparations was determined with the Micro BCA TM Protein Assay Kit (Thermo Fisher Scientific, Rockford, IL) using bovine serum albumin as a standard.
# (§3) The PBP binding assay was done as described previously[36],[56],[57]. For each antibiotic concentration tested, a quantity of 25 to 40 μg of membrane preparation was used as the source of PBPs, depending on the species. For the purified PaPBP3, 150 ng was used in the assay. First, increasing concentrations of the test antibiotic was added to the membrane or purified PaPBP3 preparations and incubated for 10 min at 30 °C. The reporter molecule Bocillin FL was then added at 12.5 μM for the membrane PBPs preparations and at 500 nM for the pure PaPBP3 samples for an additional 20 min at 30 °C. All reactions were stopped with the addition of the Laemmli-loading buffer (Bio-Rad) containing fresh β-mercaptoethanol (Sigma). All reactions were then heated at 100°C for 3 min before migration on SDS-polyacrylamide discontinuous gel system (7.5% stacking and 10% separating). Control samples without Bocillin FL were also included to highlight autofluorescent proteins that are not PBPs.
# (§4) To be able to visualize labeled PBPs after electrophoresis, gels were rinsed in water and fixed in a solution of 50% methanol and 7% acetic acid for 30 min. The fluorescent images of gels were obtained with the Typhoon FLA 9500 instrument (GE-Healthcare Bio-Sciences Inc., Baie-d’Urfé, QC, CA) using a 473 nm excitation wavelength. To obtain quantifiable data, the software Quantity One 1D analysis was used (version 4.6.6; Bio-Rad Laboratories, Richmond, CA). The volume (intensity × constant area) of each PBP was measured. […] All IC50 data were obtained from at least two independent PBP binding assays using two different sets of compound concentrations using a linear regression. The PBP profiles were confirmed, and the PBP numbering were determined using published data and individual molecular weights. […] For example, amdinocillin (Sigma) was used for PBP2 identification. […] The IC50 for PBP 2 of P. aeruginosa was measured by including the SDS-PAGE comigrating autofluorescent protein in the background, as done previously.
# PBP3 = target: T2, PBP3 (Pseudomonas aeruginosa, UniProt G3XD46); test: as above; details: for IC50 value ratio βL/SID-βL, PBP3: P. aeruginosa ATCC 27853, membrane
# T2 construct: using bacterial membranes as the source of PBPs; endogenous in cells; host or cells: P. aeruginosa ATCC 27853 membrane preparation
# T2 sequence (G3XD46 whole entry): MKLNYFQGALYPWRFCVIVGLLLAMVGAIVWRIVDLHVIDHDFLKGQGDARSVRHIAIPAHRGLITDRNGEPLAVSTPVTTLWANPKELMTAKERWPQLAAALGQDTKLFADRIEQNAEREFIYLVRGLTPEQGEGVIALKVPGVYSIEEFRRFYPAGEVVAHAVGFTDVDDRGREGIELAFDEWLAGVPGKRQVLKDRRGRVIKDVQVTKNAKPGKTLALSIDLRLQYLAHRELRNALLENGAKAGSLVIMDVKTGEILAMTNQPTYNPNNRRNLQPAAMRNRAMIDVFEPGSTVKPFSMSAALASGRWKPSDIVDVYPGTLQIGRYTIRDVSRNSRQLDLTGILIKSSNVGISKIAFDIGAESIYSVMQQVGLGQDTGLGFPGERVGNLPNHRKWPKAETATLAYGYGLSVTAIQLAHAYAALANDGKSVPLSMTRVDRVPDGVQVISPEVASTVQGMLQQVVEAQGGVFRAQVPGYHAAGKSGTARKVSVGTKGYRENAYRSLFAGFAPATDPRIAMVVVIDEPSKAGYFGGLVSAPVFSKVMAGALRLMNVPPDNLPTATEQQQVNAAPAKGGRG
# Experimental: as §2, §3, §4
# PBP1a = target: T3, PBP1a (Pseudomonas aeruginosa, UniProt Q07806); test: as above
# T3 construct: using bacterial membranes as the source of PBPs; endogenous in cells; host or cells: P. aeruginosa ATCC 27853 membrane preparation
# T3 sequence (Q07806 whole entry): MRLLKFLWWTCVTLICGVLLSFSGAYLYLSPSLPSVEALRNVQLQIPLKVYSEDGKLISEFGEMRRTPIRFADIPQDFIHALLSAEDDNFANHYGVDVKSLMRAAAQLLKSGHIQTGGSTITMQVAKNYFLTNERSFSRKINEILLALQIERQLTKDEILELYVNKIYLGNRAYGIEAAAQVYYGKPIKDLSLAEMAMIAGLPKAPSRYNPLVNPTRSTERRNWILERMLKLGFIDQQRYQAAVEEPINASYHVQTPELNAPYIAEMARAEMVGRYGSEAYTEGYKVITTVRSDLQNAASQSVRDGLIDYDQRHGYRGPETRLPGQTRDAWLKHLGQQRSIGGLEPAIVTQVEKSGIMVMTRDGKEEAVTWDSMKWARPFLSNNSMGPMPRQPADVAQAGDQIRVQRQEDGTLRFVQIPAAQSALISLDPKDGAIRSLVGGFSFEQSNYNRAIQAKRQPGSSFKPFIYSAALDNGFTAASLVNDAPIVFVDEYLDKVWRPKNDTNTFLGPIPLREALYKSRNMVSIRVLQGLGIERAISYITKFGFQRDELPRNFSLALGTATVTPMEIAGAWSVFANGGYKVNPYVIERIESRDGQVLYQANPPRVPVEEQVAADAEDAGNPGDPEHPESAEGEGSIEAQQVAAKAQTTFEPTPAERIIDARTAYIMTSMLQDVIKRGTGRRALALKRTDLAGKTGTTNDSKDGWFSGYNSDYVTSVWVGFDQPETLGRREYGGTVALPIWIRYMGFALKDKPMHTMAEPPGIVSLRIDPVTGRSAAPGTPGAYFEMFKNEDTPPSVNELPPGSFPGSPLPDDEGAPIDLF
# Experimental: as §2, §3, §4
# [2] = ID-MHBCA (−), 0 µg/mL supplemental iron
# [3] = Klebsiella pneumoniae, ATCC13883, ID-MHBCA (−), 0 µg/mL supplemental iron
# [4] = Klebsiella pneumoniae, ATCC13883, ID-MHBCA + 1 µg/mL supplemental iron
# [5] = Klebsiella pneumoniae, ATCC13883, MHBCA (+)
# [6] = P. aeruginosa ATCC 27853 membranes, read-out: IC50 PBP2
# [7] = P. aeruginosa ATCC 27853 membranes, read-out: IC50 PBP3
# [8] = P. aeruginosa ATCC 27853 membranes, read-out: IC50 PBP1a
# [9] = Klebsiella pneumoniae, ATCC13883, ID-MHBCA + 0.1 µg/mL supplemental iron
SMILES,MIC (K. pneumoniae ATCC 13883; [2]),MIC with β-lactamase inhibitor (βI) (K. pneumoniae ATCC 13883; ID-MHBCA),MIC (K. pneumoniae ATCC 13883; [3]),MIC (K. pneumoniae ATCC 13883; [4]),MIC (K. pneumoniae ATCC 13883; [5]),MIC (K. pneumoniae ATCC 13883; MHBCA (+)),MIC with β-lactamase inhibitor (βI) (K. pneumoniae ATCC 13883; MHBCA),MIC ([1]; Pseudomonas aeruginosa),MIC ratio unconjugated β-lactam/conjugate (K. pneumoniae ATCC 13883; ID-MHBCA),MIC ratio unconjugated β-lactam/conjugate (K. pneumoniae ATCC 13883; MHBCA),IC50 (PBP2; [6]),"IC50 value ratio βL/SID-βL, PBP3 (PBP3)",IC50 (PBP3; [7]),IC50 (PBP1a; [8]),MIC ratio 0/1 (K. pneumoniae ATCC 13883; ID-MHBCA),MIC ratio 1/0 (K. pneumoniae ATCC 13883; ID-MHBCA),MIC (K. pneumoniae ATCC 13883; [9]),also measured
"CC1(C)S[C@@H]2[C@H](NC(=O)[C@H](N)c3ccccc3)C(=O)N2[C@H]1C(=O)O [AMP, ampicillin, reference compound]",>200 µM,6.3 µM,> 200 µM,> 200 µM,> 200 µM,>200 µM,6.3 μM and 6.3^d μM,> 200 µM,,,,,,,,,,IC50 (PBP2): > 50 µM; IC50 (PBP3): 0.24 ± 0.08 µM; IC50 (PBP1a): 1.9 ± 1.5 µM
"CC1(C)SC2C(NC(=O)C(NC(=O)CN(CCCCNC(=O)c3cccc(O)c3O)C(=O)c3cccc(O)c3O)c3ccccc3)C(=O)N2C1C(=O)O (centres unmarked) [BAMP, bis-catechol (azotochelin)-ampicillin]",>200 µM,0.4 µM,> 200 µM,> 200 µM,> 200 µM,>200 µM,1.6 µM,0.4 µM,No activity,No activity,> 50 µM,1.5,0.16 ± 0.01 µM,1.4 ± 0.7 µM,,,,
"O=C(CN(CCCCNC(=O)c1cccc(O)c1O)C(=O)c1cccc(O)c1O)NC(C(=O)NC1C(=O)N2C(C(=O)O)=C(Cl)CCC12)c1ccccc1 (centres unmarked) [BLOR, bis-catechol (azotochelin)-loracarbef]",,0.1 µM,0.1 µM,6.3 µM,0.2 µM,,0.2 µM,13 µM,16,8,4.8 ± 3 µM,> 16,3.2 ± 0.1 µM,0.58 ± 0.04 µM,64,64,0.4 µM,
"N[C@@H](C(=O)N[C@@H]1C(=O)N2C(C(=O)O)=C(Cl)CS[C@H]12)c1ccccc1 [CEF, cefaclor, reference compound]",,1.6 µM,3.1 µM,6.3 µM,3.1 µM,,1.6 µM,> 200 µM,,,> 50 µM,,39 ± 1.5 µM,33.9 ± 6.9 µM,2,2,3.1 µM,
"N[C@@H](C(=O)N[C@@H]1C(=O)N2C(C(=O)O)=C(Cl)CC[C@H]12)c1ccccc1 [LOR, loracarbef, reference compound]",1.6 µM,1.6 µM,,,,1.6 µM,1.6 µM,,,,> 50 µM,,> 50 µM,> 50 µM,2,2,,MIC (K. pneumoniae ATCC 13883; ID-MHBCA + 0.1 µg/mL supplemental iron): 1.6 µM; MIC (K. pneumoniae ATCC 13883; ID-MHBCA + 1 µg/mL supplemental iron): 3.1 µM; MIC ([1]; P. aeruginosa 2302): > 200 µM
"O=C(CCC(=O)N(CCCCNC(=O)c1cccc(O)c1O)CCCNC(=O)c1cccc(O)c1O)NCCCCCN(O)C(=O)CCCC(=O)NC(C(=O)NC1C(=O)N2C(C(=O)O)=C(Cl)CSC12)c1ccccc1 (centres unmarked) [MCEF, mixed ligand bis-catechol-mono-hydroxamate-cefaclor]",>200 µM,200 µM,> 200 µM,> 200 µM,> 200 µM,>200 µM,13 µM,> 100 µM,<0.016,<0.016,6.74 ± 0.03 µM,,2.01 ± 0.48 µM,0.39 ± 0.35 µM,,,,
